No end group written: not given here.
Tests used:
X4 HIV-1 strains = system: X4 HIV-1 strains
Experimental: (§1) Antiviral screening was performed using the X4 HIV-1 NL4-3 molecular clone.
(§2) HIV-1, HIV-2 and SIV molecular clones differing in coreceptor tropism were generated by transient transfection of 293T cells with proviral DNA by the calcium phosphate method (CalPhos™ Mammalian Transfection Kit, Clon-tech). After overnight incubation, the transfection mixture was replaced by DMEM medium supplemented with 10% FCS, and virus stocks were harvested 48 hrs post-transfection. Subsequently, the culture supernatant was centrifuged for 5 min at 3000 rpm to remove cell debris. The resulting virus stock was quantified by p24 (HIV) or p27 (SIV) antigen ELISA. Virus stocks were either used immediately or stored in aliquots at −80° C.
(§3) TZM-bl reporter cells containing the LacZ reporter gene under the control of the HIV-1 promoter were seeded in 96-well F-bottom microtiter plates (Greiner Bio-One). On the following day, the cells were preincubated with various dilutions of the peptide of SEQ ID NO 16 or its derivatives for 1 hour and subsequently infected with HIV-1, HIV-2, and SIV. Infection rates were determined after 2 days using the one-step Tropix Gal-Screen Kit, as recommended by the manufacturer.

CXCR4 [1] = target: T1, CXCR4 (Homo sapiens, UniProt P61073); experiment: Competition with CXCL12 binding to CXCR4 (real-time fluorescence, eGFP-CXCR4 cells)
T1 construct: expressed in transfected cells
T1 sequence (P61073 whole entry): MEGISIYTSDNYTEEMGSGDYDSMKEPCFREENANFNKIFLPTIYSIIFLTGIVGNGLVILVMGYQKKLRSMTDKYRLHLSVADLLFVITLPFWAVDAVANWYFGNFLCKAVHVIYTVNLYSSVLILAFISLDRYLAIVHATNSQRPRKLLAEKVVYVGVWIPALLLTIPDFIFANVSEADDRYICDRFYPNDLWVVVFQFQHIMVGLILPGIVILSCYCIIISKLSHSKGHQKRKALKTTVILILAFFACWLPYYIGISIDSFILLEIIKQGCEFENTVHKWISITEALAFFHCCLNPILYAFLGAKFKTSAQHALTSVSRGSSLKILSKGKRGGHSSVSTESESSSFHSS
Experimental: Anti-human CXCR4 (clone 12G5, IgG2a) or anti-human CXCR7 (clone 9C4) monoclonal antibodies (mAbs) were purchased from R&D Systems (Minneapolis, Minn.). […] The human chemokines CXCL12 and CXCL12-TexasRed were synthesized as described (Valenzuela-Fernandez, et al. 2001). The human chemokine CXCL11 was purchased from Clinisciences SAS (France).
Experiments were performed using cells stably expressing eGFP-CXCR4, suspended in HEPES-bovine serum albumin buffer (10 mM HEPES, 137.5 mM NaCl, 1.25 mM MgCl2, 1.25 mM CaCl2, 6 mM KCl, 10 mM glucose, 0.4 mM NaH2PO4, 0.1% bovine serum albumin (w/v), pH 7.4) (typically at 10^6 cells/mL). Time-based recordings of the fluorescence emitted at 510 nm (excitation at 470 nm) were performed at 21° C. using a spectrofluorimeter and sampled every 0.3 s. Fluorescence binding measurements were initiated by adding at 30 s 100 nM of CXCL12-TR to the 1 mL cell suspension. For competition experiments, EGFP-CXCR4 expressing cells were preincubated for 10 min in the absence or presence of various concentrations of unlabelled drugs. Then, CXCL12-TR (100 nM) was added and fluorescence was recorded until equilibrium was reached (300 s). Data were analyzed using Kaleidagraph 3.08 software (Synergy Software, Reading, Pa., USA).

CXCR4 [2] = target: T2, CXCR4 (Mus musculus, UniProt P70658); experiment: Asthma mouse model (OVA challenge); format: in vivo; conditions: mice, i.p., allergen challenge with OVA
T2 construct: from tissue; host or cells: live mice (C57Bl/6J for mobilization)
T2 sequence (P70658 whole entry): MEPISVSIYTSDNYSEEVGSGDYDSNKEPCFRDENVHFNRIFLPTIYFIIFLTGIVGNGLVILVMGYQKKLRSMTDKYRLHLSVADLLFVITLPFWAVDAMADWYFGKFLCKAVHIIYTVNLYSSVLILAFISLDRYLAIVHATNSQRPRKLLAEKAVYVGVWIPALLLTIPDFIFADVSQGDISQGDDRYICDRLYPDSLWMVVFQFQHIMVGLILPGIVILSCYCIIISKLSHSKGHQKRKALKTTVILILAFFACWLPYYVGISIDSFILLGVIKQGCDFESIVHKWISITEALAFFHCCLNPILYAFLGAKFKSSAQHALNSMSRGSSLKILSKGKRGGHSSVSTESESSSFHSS
Experimental: Mice were sensitized by intraperitoneal (i.p.) injection on days 0, 1 and 2 of 50 μg ovalbumin (OVA, Sigma-Aldrich, A5503) adsorbed on 2 mg aluminium hydroxide (Sigma-Aldrich, 23918-6) in saline. Mice were challenged by intranasal (i.n.) instillation of 10 μg OVA in 25 μl saline (12.5 μl/nostril) or saline alone for control mice on days 5, 6 and 7 under anesthesia (50 mg/kg ketamine and 3.3 mg/kg xylazine, i.p.). the peptide of SEQ ID NO 16 or ALB409-423 in saline were administered i.p. (16 μmol/kg) two hours before each OVA challenge. Bronchoalveolar lavage (BAL) and differential cell counts were performed 24 h after the last OVA challenge as previously reported in (Rebber et al., 2012).

X4 tropic HIV-1 NL4-3 = conditions: blocking X4 tropic HIV-1 NL4-3 infection
Experimental: as §1, §2, §3

With “HSA precursor: highly abundant HSA precursor; the most abundant protein in human plasma, of which the SEQ ID NO 16 peptide is a fragment” as the substance, how does the antiretroviral effect (X4 HIV-1 strains) read?
Its antiretroviral effect is “no antiretroviral effect”.

Which results are given for “ALB409-423: ALB409-423, which does not interact with CXCR4; control peptide in the asthma mouse model (VRYTKKVPQVSTPTL) [reference compound]”?
interaction with CXCR4 (CXCR4 [1]): does not interact; CXCR4-dependent infiltration of neutrophils, lymphocytes and eosinophils into the airways (CXCR4 [2]): no significant effects; infiltration of macrophages (CXCR4 [2]): no significant effects

How did the IC50 (X4 tropic HIV-1 NL4-3) turn out when “IVRYTKKVPQVS [Derivative 408I-419, IVRYTKKVPQVS]” was run?
Its IC50 is 2480 nM.

For “IVRWSKKVPQCS [408I-419 WSC01, IVRWSKKVPQCS]”, which IC50 (X4 tropic HIV-1 NL4-3) is on record?
The IC50 was 870 nM.

How did the IC50 (X4 tropic HIV-1 NL4-3) turn out when “IVRSTKKVPQVS [408I-419 Y411S, IVRSTKKVPQVS]” was run?
The IC50 was greater than 100000 nM.

How did the IC50 (X4 tropic HIV-1 NL4-3) turn out when “LVRYTKKVPQVSTP [Derivative 408-421, LVRYTKKVPQVSTP]” was run?
Its IC50 is 14000 nM.

Source: patent US10294272B2, “Peptides with antagonistic activities against natural CXCR4” (Pharis Biotec GmbH, priority 2013, dated 2019)
